According to patent US20080009418A1, “Selective Inhibitors” (Alchemia LTD., priority 2004, published 2008):

How the values were obtained:
Conditions in all cases: compound at 10 μM
Human δ-opioid (DOP) = molecular target: T1, Human δ-opioid (DOP) (Homo sapiens, UniProt P41143); test: Radioligand binding, human δ-opioid (DOP) membranes, FlashPlate, [3H]-Bremazocine
T1 construct: purchased Perkin Elmer Biosignal
Procedure, shortened: (§1)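 Cloned human receptor membranes were coated onto FlashPlate wells and incubated with radioligand and compound (added from a 0.5 mM DMSO daughter plate) for 1 hour at room temperature in the dark. Scintillation counting gave percent inhibition, with DMSO defining total and reference ligand defining non-specific binding.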

Human κ-Opioid (KOP) = molecular target: T2, Human κ-Opioid (KOP) (Homo sapiens, UniProt P41145); test: Radioligand binding, human κ-opioid (KOP) membranes, filtration, [3H]-Diprenorphine
T2 construct: purchased Perkin Elmer Biosignal
Procedure, shortened: (§2)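 Filtration binding on cloned human receptor membranes (1 Unit/well), [125I]-Substance P for NK1 and [3H]-Diprenorphine for KOP, 1 h at room temperature. Filters PEI-presoaked, washed with cold 50 mM Tris-HCl pH 7.4, counted by scintillation; percent inhibition calculated, reference ligand defining non-specific binding.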

Human Melanocortin (MC3) = molecular target: T3, Human Melanocortin (MC3) (Homo sapiens, UniProt P41968); test: Radioligand binding, human melanocortin MC3 membranes, FlashPlate, [125I]-NDP-αMSH
T3 construct: purchased Perkin Elmer Biosignal
Procedure, shortened: as §1

Human Melanocortin (MC4) = molecular target: T4, Human Melanocortin (MC4) (Homo sapiens, UniProt P32245); test: Radioligand binding, human melanocortin MC4 membranes, FlashPlate, [125I]-NDP-αMSH
T4 construct: purchased Perkin Elmer Biosignal
Procedure, shortened: as §1

Human melanocortin (MC5) = molecular target: T5, Human melanocortin (MC5) (Homo sapiens, UniProt P33032); test: Radioligand binding, human melanocortin MC5 membranes, FlashPlate, [125I]-NDP-αMSH
T5 construct: purchased Perkin Elmer Biosignal
Procedure, shortened: as §1

[1] = molecular target: T6, Human melanin-concentrating hormone (MCH1) (Homo sapiens, UniProt Q99705); test: Radioligand binding, human melanin-concentrating hormone MCH1 membranes, FlashPlate, [125I]-S36057
T6 construct: purchased Perkin Elmer Biosignal
Procedure, shortened: as §1

Human μ-opioid (MOP) = molecular target: T7, Human μ-opioid (MOP) (Homo sapiens, UniProt P35372); test: Radioligand binding, human μ-opioid (MOP) membranes, FlashPlate, [3H]-Naloxone
T7 construct: purchased Perkin Elmer Biosignal
Procedure, shortened: as §1

Human neurokinin (NK1) = molecular target: T8, Human neurokinin (NK1) (Homo sapiens, UniProt P25103); test: Radioligand binding, human neurokinin NK1 membranes, filtration, [125I]-Substance P
T8 construct: purchased Perkin Elmer Biosignal
Procedure, shortened: as §2

[2] = molecular target: T9, Human neuropeptide Y (NPY-Y1) (Homo sapiens, UniProt P25929); test: Radioligand binding, human neuropeptide Y NPY-Y1 membranes, FlashPlate, [125I]-PYY
T9 construct: purchased Perkin Elmer Biosignal
T9 sequence (P25929 1-384): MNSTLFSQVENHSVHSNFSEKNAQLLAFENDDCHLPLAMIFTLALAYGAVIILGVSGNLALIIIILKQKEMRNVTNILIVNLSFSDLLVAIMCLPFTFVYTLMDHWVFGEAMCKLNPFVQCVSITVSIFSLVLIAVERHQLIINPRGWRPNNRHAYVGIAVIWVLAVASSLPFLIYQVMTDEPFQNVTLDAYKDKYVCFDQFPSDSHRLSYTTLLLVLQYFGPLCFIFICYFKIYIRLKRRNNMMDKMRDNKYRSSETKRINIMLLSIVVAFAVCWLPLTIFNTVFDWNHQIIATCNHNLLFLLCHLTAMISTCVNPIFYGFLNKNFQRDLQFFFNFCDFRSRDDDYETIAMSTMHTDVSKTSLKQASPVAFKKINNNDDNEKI
Procedure, shortened: as §1

Human opioid (ORL1) = molecular target: T10, Human opioid (ORL1) (Homo sapiens, UniProt P41146); test: Radioligand binding, human opioid ORL1 membranes, FlashPlate, [125I]-Nociceptin
T10 construct: purchased Perkin Elmer Biosignal
Procedure, shortened: as §1

Mouse urotensin (mUR2) = molecular target: T11, Mouse urotensin (mUR2) (Mus musculus, UniProt Q8VIH9); test: Radioligand binding, mouse urotensin mUR2 membranes, FlashPlate, [125I]-Urotensin II
T11 construct: purchased Perkin Elmer Biosignal
T11 sequence (Q8VIH9 1-385): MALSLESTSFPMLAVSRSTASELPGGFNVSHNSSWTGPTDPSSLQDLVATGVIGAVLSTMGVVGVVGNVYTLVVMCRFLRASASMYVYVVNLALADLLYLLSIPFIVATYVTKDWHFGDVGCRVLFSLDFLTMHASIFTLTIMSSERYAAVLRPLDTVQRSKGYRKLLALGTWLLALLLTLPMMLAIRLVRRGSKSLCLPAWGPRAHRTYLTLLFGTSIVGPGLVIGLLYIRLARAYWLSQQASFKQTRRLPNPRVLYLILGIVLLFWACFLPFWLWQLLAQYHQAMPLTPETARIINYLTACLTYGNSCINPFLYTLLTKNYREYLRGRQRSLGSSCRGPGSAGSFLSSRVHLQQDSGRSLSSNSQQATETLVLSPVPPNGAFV
Procedure, shortened: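 Cloned mouse urotensin (mUR2) receptor membranes from Perkin Elmer Biosignal were immobilized in FlashPlate microplates using a proprietary coating. Each well got 19.5 μl buffer, then 0.5 μl of DMSO, reference ligand, or compound. Adding 5 μl of [125I]-Urotensin II, diluted to 5× final concentration in binding buffer, started binding. Plates were sealed with TopSeal-A and incubated 1 hour at room temperature in the dark. Wells were counted for 30 seconds each on a TopCount after a 60-second delay, and percentage inhibition was calculated.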

[3] = [125I]-Urotensin II, FlashPlate

T6 sequence (Q99705 whole entry): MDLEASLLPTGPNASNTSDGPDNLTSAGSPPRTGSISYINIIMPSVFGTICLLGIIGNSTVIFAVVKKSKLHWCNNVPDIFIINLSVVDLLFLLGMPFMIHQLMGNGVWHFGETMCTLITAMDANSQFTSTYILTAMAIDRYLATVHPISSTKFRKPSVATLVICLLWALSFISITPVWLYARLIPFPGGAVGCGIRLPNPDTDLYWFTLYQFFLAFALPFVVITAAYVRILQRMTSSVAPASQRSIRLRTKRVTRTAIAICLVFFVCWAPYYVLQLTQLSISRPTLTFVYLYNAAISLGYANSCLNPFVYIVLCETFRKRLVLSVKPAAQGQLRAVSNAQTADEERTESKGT
T5 sequence (P33032 whole entry): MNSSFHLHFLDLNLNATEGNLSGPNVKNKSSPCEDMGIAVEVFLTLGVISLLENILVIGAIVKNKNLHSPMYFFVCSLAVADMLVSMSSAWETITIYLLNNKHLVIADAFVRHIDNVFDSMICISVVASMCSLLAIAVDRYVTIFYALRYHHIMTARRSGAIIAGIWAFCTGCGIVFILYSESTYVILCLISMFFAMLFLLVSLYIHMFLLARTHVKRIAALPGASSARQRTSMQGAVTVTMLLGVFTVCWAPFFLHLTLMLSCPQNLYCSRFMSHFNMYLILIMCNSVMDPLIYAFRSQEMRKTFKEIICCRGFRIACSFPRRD
T10 sequence (P41146 whole entry): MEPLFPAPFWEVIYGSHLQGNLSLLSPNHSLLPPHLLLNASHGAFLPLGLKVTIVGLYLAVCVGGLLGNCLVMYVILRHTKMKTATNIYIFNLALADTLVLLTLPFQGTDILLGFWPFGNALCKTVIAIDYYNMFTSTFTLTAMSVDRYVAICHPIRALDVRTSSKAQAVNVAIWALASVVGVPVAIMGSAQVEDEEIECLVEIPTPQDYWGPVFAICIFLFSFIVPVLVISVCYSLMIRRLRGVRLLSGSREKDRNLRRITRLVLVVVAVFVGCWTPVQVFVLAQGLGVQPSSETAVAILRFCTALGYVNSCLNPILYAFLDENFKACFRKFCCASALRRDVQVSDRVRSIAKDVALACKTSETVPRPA
T2 sequence (P41145 whole entry): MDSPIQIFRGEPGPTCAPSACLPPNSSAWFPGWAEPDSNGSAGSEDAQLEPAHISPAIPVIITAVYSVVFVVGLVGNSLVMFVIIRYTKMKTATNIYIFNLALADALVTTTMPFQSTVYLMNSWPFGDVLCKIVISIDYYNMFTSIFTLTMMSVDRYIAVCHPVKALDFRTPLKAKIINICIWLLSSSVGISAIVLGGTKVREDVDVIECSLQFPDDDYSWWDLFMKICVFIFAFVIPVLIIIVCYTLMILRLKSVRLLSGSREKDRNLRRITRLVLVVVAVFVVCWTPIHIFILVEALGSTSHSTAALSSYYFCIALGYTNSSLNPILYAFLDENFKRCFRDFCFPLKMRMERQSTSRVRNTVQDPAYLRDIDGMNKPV
T7 sequence (P35372 whole entry): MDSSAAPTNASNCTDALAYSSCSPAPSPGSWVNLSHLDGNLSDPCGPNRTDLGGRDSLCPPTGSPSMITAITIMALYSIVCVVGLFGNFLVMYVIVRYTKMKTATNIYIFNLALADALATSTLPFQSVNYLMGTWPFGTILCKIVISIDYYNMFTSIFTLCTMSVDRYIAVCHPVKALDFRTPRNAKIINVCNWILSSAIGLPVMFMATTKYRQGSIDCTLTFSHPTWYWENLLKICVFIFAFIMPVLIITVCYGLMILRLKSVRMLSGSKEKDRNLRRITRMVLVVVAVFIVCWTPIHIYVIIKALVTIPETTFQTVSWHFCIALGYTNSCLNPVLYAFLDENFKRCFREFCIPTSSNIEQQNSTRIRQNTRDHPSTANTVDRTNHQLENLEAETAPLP
T3 sequence (P41968 whole entry): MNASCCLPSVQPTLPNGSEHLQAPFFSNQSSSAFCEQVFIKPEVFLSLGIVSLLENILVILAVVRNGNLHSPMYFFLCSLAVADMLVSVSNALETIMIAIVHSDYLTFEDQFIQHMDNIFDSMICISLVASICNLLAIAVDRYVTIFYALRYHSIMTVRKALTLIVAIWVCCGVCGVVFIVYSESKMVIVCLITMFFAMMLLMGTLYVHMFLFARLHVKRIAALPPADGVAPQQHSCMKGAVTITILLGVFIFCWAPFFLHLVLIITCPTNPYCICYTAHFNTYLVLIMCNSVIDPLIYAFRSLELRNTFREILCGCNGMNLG
T8 sequence (P25103 whole entry): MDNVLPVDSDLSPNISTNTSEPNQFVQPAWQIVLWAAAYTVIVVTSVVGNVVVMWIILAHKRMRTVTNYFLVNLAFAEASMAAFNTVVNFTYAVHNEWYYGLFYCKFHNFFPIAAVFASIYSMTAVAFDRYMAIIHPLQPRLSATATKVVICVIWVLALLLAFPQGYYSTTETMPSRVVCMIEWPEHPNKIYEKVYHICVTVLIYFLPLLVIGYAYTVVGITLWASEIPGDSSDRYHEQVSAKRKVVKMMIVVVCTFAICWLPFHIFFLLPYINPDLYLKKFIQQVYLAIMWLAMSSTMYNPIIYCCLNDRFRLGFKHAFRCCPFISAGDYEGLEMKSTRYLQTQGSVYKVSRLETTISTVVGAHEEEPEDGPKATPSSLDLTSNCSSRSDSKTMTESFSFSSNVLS
T4 sequence (P32245 whole entry): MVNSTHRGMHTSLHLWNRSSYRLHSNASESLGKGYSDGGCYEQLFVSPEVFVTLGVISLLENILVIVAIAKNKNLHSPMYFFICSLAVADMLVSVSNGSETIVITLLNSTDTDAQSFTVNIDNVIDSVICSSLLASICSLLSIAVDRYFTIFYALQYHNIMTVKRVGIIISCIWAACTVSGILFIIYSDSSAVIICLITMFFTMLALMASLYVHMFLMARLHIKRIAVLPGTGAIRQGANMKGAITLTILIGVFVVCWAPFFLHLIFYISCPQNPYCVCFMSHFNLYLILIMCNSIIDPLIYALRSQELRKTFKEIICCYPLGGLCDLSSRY
T1 sequence (P41143 whole entry): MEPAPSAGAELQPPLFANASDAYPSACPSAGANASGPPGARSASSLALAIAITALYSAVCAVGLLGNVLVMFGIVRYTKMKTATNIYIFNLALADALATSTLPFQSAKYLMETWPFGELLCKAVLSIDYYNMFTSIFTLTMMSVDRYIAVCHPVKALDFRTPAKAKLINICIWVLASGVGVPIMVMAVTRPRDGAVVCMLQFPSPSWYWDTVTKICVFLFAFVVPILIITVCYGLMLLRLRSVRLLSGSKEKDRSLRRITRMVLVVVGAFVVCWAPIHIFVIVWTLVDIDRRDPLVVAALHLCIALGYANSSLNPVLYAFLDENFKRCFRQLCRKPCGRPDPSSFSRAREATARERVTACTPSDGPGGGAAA

Compound: NCCCC(=O)NC1C(OCc2ccc3ccccc3c2)OC(COCc2ccc3ccccc3c2)C(O)C1OCc1ccc2ccccc2c1 (single isomer, unassigned) [compound 461]
- A1: inhibition of radioligand binding (Human δ-opioid (DOP); [3H]-Bremazocine, human DOP membranes): − (“−” indicates less than 50% inhibition at 10 μM)
- A2: inhibition of radioligand binding (Human κ-Opioid (KOP); [3H]-Diprenorphine, human KOP membranes): − (“−” indicates less than 50% inhibition at 10 μM)
- A3: inhibition of radioligand binding (Human Melanocortin (MC3); [125I]-NDP-αMSH, human MC3 membranes, 10 µM): + (“+” indicates greater than 50% inhibition at 10 μM)
- A4: inhibition of radioligand binding (Human Melanocortin (MC4); [125I]-NDP-αMSH, human MC4 membranes, 10 µM): + (“+” indicates greater than 50% inhibition at 10 μM)
- A5: inhibition of radioligand binding (Human melanocortin (MC5); [125I]-NDP-αMSH, human MC5 membranes): + (“+” indicates greater than 50% inhibition at 10 μM)
- A6: inhibition of radioligand binding ([1]; [125I]-S36057, human MCH1 membranes, 10 µM): + (“+” indicates greater than 50% inhibition at 10 μM)
- A7: inhibition of radioligand binding (Human μ-opioid (MOP); [3H]-Naloxone, human MOP membranes, 10 µM): + (“+” indicates greater than 50% inhibition at 10 μM)
- A8: inhibition of radioligand binding (Human neurokinin (NK1); [125I]-Substance P, human NK1 membranes): + (“+” indicates greater than 50% inhibition at 10 μM)
- A9: inhibition of radioligand binding ([2]; [125I]-PYY, human NPY-Y1 membranes): − (“−” indicates less than 50% inhibition at 10 μM)
- A10: inhibition of radioligand binding (Human opioid (ORL1); [125I]-Nociceptin, human ORL1 membranes, 10 µM): + (“+” indicates greater than 50% inhibition at 10 μM)
- A11: inhibition of radioligand binding (Mouse urotensin (mUR2); [125I]-Urotensin II, mouse mUR2 membranes): − (“−” indicates less than 50% inhibition at 10 μM)

Compound: COCC1OC(OCc2ccccc2)C(NC(=O)CCCN)C(OCc2ccccc2)C1O (stereo not shown) [compound 174]
- A1 radioligand binding, percentage inhibition (Human δ-opioid (DOP); [3H]-Bremazocine): − (“−” indicates less than 50% inhibition at 10 μM)
- A2 radioligand binding, percentage inhibition (Human κ-Opioid (KOP); [3H]-Diprenorphine): − (“−” indicates less than 50% inhibition at 10 μM)
- A3 radioligand binding, percentage inhibition (Human Melanocortin (MC3); [125I]-NDP-αMSH): − (“−” indicates less than 50% inhibition at 10 μM)
- A4 radioligand binding, percentage inhibition (Human Melanocortin (MC4); [125I]-NDP-αMSH): − (“−” indicates less than 50% inhibition at 10 μM)
- A5 radioligand binding, percentage inhibition (Human melanocortin (MC5); [125I]-NDP-αMSH): − (“−” indicates less than 50% inhibition at 10 μM)
- A6 radioligand binding, percentage inhibition ([1]; [125I]-S36057): − (“−” indicates less than 50% inhibition at 10 μM)
- A7 radioligand binding, percentage inhibition (Human μ-opioid (MOP); [3H]-Naloxone): − (“−” indicates less than 50% inhibition at 10 μM)
- A8 radioligand binding, percentage inhibition (Human neurokinin (NK1); [125I]-Substance P): + (“+” indicates greater than 50% inhibition at 10 μM)
- A9 radioligand binding, percentage inhibition ([2]; [125I]-PYY): − (“−” indicates less than 50% inhibition at 10 μM)
- A10 radioligand binding, percentage inhibition (Human opioid (ORL1); [125I]-Nociceptin): − (“−” indicates less than 50% inhibition at 10 μM)
- A11 radioligand binding, percentage inhibition (Mouse urotensin (mUR2); [125I]-Urotensin II): − (“−” indicates less than 50% inhibition at 10 μM)

Compound: COCC1OC(OCc2ccc3ccccc3c2)C(NC(=O)CCNC(=N)N)C(OCc2ccccc2)C1O (stereo not shown) [compound 232]
- A1: inhibition of radioligand binding (Human δ-opioid (DOP); [3H]-Bremazocine, FlashPlate): − (“−” indicates less than 50% inhibition at 10 μM)
- A2: inhibition of radioligand binding (Human κ-Opioid (KOP); [3H]-Diprenorphine, filtration): − (“−” indicates less than 50% inhibition at 10 μM)
- A3: inhibition of radioligand binding (Human Melanocortin (MC3); [125I]-NDP-αMSH, FlashPlate): − (“−” indicates less than 50% inhibition at 10 μM)
- A4: inhibition of radioligand binding (Human Melanocortin (MC4); [125I]-NDP-αMSH, FlashPlate): − (“−” indicates less than 50% inhibition at 10 μM)
- A5: inhibition of radioligand binding (Human melanocortin (MC5); [125I]-NDP-αMSH, FlashPlate): − (“−” indicates less than 50% inhibition at 10 μM)
- A6: inhibition of radioligand binding ([1]; [125I]-S36057, FlashPlate): − (“−” indicates less than 50% inhibition at 10 μM)
- A7: inhibition of radioligand binding (Human μ-opioid (MOP); [3H]-Naloxone, FlashPlate): − (“−” indicates less than 50% inhibition at 10 μM)
- A8: inhibition of radioligand binding (Human neurokinin (NK1); [125I]-Substance P, filtration): + (“+” indicates greater than 50% inhibition at 10 μM)
- A9: inhibition of radioligand binding ([2]; [125I]-PYY, FlashPlate): − (“−” indicates less than 50% inhibition at 10 μM)
- A10: inhibition of radioligand binding (Human opioid (ORL1); [125I]-Nociceptin, FlashPlate): − (“−” indicates less than 50% inhibition at 10 μM)
- A11: inhibition of radioligand binding (Mouse urotensin (mUR2); [3]): − (“−” indicates less than 50% inhibition at 10 μM)

Compound: COC[C@H]1OC(OCc2ccc3ccccc3c2)[C@H](NC(=O)CNC(=N)N)[C@@H](OCc2ccc(Cl)cc2)[C@@H]1O (stereo partly shown) [compound 22]
- A1 radioligand binding inhibition (Human δ-opioid (DOP); human δ-opioid (DOP) membranes): − (“−” indicates less than 50% inhibition at 10 μM)
- A2 radioligand binding inhibition (Human κ-Opioid (KOP); human κ-opioid (KOP) membranes): − (“−” indicates less than 50% inhibition at 10 μM)
- A3 radioligand binding inhibition (Human Melanocortin (MC3); human melanocortin MC3 membranes): − (“−” indicates less than 50% inhibition at 10 μM)
- A4 radioligand binding inhibition (Human Melanocortin (MC4); human melanocortin MC4 membranes): − (“−” indicates less than 50% inhibition at 10 μM)
- A5 radioligand binding inhibition (Human melanocortin (MC5); human melanocortin MC5 membranes): + (“+” indicates greater than 50% inhibition at 10 μM)
- A6 radioligand binding inhibition ([1]; human MCH1 membranes): − (“−” indicates less than 50% inhibition at 10 μM)
- A7 radioligand binding inhibition (Human μ-opioid (MOP); human μ-opioid (MOP) membranes): − (“−” indicates less than 50% inhibition at 10 μM)
- A8 radioligand binding inhibition (Human neurokinin (NK1); human neurokinin NK1 membranes): − (“−” indicates less than 50% inhibition at 10 μM)
- A9 radioligand binding inhibition ([2]; human NPY-Y1 membranes): − (“−” indicates less than 50% inhibition at 10 μM)
- A10 radioligand binding inhibition (Human opioid (ORL1); human ORL1 membranes): − (“−” indicates less than 50% inhibition at 10 μM)
- A11 radioligand binding inhibition (Mouse urotensin (mUR2); mouse urotensin mUR2 membranes): − (“−” indicates less than 50% inhibition at 10 μM)

Compound: COCC1OC(OCc2ccc3ccccc3c2)C(NC(=O)CNC(=N)N)C(OCc2ccc(-c3ccccc3)cc2)C1O (stereo not shown) [compound 242]
- A1: inhibition of radioligand binding (Human δ-opioid (DOP); [3H]-Bremazocine, FlashPlate): − (“−” indicates less than 50% inhibition at 10 μM)
- A2: inhibition of radioligand binding (Human κ-Opioid (KOP); [3H]-Diprenorphine, filtration): − (“−” indicates less than 50% inhibition at 10 μM)
- A3: inhibition of radioligand binding (Human Melanocortin (MC3); [125I]-NDP-αMSH, FlashPlate): + (“+” indicates greater than 50% inhibition at 10 μM)
- A4: inhibition of radioligand binding (Human Melanocortin (MC4); [125I]-NDP-αMSH, FlashPlate): + (“+” indicates greater than 50% inhibition at 10 μM)
- A5: inhibition of radioligand binding (Human melanocortin (MC5); [125I]-NDP-αMSH, FlashPlate): + (“+” indicates greater than 50% inhibition at 10 μM)
- A6: inhibition of radioligand binding ([1]; [125I]-S36057, FlashPlate): − (“−” indicates less than 50% inhibition at 10 μM)
- A7: inhibition of radioligand binding (Human μ-opioid (MOP); [3H]-Naloxone, FlashPlate): − (“−” indicates less than 50% inhibition at 10 μM)
- A8: inhibition of radioligand binding (Human neurokinin (NK1); [125I]-Substance P, filtration): + (“+” indicates greater than 50% inhibition at 10 μM)
- A9: inhibition of radioligand binding ([2]; [125I]-PYY, FlashPlate): − (“−” indicates less than 50% inhibition at 10 μM)
- A10: inhibition of radioligand binding (Human opioid (ORL1); [125I]-Nociceptin, FlashPlate): − (“−” indicates less than 50% inhibition at 10 μM)
- A11: inhibition of radioligand binding (Mouse urotensin (mUR2); [3]): − (“−” indicates less than 50% inhibition at 10 μM)
